The values below come from ChEMBL document CHEMBL5291721, “A preclinical secondary pharmacology resource illuminates target-adverse drug reaction associations of marketed drugs” (Nat Commun, 2023).

The term AC50 denotes the midpoint of the concentration-response curve, whichever way the signal moves. High values mean activity only at high concentration, low ones activity at low concentration.

Assay [1] deals with T1, Beta-2 adrenergic receptor (Homo sapiens, UniProt P07550).
Assay [2] concerns the target T2, Amine oxidase [flavin-containing] A (Homo sapiens, UniProt P21397).
T2 sequence (P21397 whole entry): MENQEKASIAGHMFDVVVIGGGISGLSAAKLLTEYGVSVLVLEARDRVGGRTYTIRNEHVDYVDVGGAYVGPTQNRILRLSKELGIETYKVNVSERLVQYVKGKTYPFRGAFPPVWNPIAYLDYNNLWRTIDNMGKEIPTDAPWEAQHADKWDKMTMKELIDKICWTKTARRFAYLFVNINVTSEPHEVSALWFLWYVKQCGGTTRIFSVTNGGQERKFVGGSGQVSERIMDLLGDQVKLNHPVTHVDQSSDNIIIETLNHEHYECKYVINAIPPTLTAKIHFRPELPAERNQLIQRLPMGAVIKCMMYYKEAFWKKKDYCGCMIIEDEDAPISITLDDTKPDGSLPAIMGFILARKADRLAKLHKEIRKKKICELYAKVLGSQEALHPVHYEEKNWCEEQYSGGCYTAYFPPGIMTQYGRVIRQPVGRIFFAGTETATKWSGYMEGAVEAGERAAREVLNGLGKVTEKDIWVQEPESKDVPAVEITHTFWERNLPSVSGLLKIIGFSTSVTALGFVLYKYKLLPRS
The assay is classed as functional.

For assay [3], the target named is T3, 5-hydroxytryptamine receptor 2A (Homo sapiens, UniProt P28223). The format is functional, cell-based.
Assay [4] addresses T4, Cannabinoid receptor 1 (Homo sapiens, UniProt P21554). The assay is classed as functional, cell-based.
Assay [5] concerns the target T5, Gastrin/cholecystokinin type B receptor (Homo sapiens, UniProt P32239).
T5 sequence (P32239 whole entry): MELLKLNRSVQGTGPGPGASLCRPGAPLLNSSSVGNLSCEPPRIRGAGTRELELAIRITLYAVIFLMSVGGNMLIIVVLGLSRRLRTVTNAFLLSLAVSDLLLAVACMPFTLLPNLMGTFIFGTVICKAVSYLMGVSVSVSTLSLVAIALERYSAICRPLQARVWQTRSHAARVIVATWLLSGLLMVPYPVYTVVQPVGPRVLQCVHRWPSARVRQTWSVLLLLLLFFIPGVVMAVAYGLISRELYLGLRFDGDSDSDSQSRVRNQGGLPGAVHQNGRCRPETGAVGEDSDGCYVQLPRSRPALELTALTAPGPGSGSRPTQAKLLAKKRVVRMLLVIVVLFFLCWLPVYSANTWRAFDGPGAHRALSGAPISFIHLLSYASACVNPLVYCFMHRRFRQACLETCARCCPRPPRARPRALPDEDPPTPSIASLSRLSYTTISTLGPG

The target of assay [6] is T3, 5-hydroxytryptamine receptor 2A. The assay is classed as functional, cell-based. The source holds these as a separate data set.
For assay [7], the target named is T6, Endothelin-1 receptor (Homo sapiens, UniProt P25101).
T6 sequence (P25101 whole entry): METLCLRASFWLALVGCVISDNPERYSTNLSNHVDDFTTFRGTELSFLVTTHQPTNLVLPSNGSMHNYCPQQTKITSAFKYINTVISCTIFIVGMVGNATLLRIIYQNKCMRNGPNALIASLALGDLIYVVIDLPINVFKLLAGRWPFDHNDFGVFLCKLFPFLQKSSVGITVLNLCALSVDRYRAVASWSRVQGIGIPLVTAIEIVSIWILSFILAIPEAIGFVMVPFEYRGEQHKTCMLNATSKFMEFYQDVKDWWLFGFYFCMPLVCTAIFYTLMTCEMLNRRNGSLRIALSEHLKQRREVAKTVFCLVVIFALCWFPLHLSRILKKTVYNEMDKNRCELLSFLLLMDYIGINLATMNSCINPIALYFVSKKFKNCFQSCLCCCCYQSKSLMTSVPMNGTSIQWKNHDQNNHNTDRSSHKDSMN

The target in assay [8] is T4, Cannabinoid receptor 1. The format is functional, cell-based. The source holds these as a separate data set.
Assay [9] deals with T4, Cannabinoid receptor 1.
The target of assay [10] is T7, Alpha-1A adrenergic receptor (Homo sapiens, UniProt P35348).
T7 sequence (P35348 whole entry): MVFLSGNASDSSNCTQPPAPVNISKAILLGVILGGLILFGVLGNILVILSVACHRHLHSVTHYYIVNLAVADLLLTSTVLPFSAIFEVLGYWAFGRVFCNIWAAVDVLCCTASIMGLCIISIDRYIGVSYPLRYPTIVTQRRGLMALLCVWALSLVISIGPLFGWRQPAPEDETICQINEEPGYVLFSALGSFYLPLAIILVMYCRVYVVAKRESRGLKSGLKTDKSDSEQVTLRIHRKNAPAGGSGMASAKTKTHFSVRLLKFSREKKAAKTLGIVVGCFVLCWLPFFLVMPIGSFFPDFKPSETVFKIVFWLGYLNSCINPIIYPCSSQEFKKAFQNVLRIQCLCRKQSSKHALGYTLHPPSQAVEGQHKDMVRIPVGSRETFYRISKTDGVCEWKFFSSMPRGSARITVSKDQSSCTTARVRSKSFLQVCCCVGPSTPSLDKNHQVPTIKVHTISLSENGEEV

Assay [11] concerns the target T8, 5-hydroxytryptamine receptor 1A (Homo sapiens, UniProt P08908).
T8 sequence (P08908 whole entry): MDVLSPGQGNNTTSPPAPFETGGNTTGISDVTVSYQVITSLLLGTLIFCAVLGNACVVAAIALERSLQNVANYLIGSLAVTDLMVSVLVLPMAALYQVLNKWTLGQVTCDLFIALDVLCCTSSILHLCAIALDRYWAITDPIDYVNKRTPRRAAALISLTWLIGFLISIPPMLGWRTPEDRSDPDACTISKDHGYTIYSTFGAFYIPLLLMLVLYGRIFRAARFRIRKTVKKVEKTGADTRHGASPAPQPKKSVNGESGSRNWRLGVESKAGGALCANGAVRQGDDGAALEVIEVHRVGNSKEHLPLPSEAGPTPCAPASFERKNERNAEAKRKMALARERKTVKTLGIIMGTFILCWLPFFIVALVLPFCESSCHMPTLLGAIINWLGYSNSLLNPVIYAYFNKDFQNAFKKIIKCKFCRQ
The format is functional, cell-based.

For assay [12], the target named is Melanocortin receptor 4 (Homo sapiens, UniProt P32245).
For assay [13], the target named is T1, Beta-2 adrenergic receptor. The assay is classed as functional, cell-based.
Assay [14] concerns the target Mu-type opioid receptor (Homo sapiens, UniProt P35372).
Note: assay procedure not described here.

T4 sequence (P21554 whole entry): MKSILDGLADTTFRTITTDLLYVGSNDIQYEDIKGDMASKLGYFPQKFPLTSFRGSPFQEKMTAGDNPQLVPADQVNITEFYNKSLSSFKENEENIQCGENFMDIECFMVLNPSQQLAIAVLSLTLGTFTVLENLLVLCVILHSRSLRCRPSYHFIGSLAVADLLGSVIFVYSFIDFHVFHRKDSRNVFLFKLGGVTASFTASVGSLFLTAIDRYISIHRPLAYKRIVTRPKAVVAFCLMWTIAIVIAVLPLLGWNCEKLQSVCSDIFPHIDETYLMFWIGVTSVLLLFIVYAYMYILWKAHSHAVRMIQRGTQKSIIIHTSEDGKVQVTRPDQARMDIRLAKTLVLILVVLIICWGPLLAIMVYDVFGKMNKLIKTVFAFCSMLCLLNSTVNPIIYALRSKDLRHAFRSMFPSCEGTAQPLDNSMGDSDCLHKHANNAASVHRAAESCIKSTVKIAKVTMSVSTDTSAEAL
T3 sequence (P28223 whole entry): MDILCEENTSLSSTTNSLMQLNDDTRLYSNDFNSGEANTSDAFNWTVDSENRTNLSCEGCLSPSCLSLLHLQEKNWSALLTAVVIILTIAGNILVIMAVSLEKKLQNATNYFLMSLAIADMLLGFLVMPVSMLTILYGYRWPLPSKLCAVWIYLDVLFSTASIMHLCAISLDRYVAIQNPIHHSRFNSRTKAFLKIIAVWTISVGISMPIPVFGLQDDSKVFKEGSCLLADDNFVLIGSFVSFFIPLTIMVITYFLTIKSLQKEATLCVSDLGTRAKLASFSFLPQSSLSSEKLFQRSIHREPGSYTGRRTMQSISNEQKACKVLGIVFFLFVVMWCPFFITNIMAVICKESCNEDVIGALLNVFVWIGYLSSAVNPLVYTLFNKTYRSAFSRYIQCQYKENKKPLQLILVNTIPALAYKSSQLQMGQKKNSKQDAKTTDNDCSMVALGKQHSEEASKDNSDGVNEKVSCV
T1 sequence (P07550 whole entry): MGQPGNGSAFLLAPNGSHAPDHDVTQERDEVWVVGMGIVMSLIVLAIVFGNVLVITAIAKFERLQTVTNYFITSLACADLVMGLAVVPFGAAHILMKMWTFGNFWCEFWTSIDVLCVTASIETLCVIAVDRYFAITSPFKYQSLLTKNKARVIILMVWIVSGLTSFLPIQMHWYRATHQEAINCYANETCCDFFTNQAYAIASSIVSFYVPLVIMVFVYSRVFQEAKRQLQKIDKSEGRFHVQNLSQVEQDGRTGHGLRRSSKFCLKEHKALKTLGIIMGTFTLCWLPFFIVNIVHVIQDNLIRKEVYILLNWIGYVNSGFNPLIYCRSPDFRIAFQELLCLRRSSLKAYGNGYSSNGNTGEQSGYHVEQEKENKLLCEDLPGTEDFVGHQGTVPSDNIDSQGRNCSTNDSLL
Chain of Mu-type opioid receptor (P35372 whole entry): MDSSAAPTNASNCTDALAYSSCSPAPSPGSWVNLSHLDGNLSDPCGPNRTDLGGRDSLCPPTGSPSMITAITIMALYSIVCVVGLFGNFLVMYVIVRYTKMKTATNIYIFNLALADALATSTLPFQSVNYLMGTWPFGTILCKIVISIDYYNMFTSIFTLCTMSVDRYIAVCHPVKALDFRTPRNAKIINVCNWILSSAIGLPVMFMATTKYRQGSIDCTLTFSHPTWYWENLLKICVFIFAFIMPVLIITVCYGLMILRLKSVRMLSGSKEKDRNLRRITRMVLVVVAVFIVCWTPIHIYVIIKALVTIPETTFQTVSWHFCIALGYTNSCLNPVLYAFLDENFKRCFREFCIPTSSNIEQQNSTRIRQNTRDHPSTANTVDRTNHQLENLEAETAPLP
Chain of Melanocortin receptor 4 (P32245 whole entry): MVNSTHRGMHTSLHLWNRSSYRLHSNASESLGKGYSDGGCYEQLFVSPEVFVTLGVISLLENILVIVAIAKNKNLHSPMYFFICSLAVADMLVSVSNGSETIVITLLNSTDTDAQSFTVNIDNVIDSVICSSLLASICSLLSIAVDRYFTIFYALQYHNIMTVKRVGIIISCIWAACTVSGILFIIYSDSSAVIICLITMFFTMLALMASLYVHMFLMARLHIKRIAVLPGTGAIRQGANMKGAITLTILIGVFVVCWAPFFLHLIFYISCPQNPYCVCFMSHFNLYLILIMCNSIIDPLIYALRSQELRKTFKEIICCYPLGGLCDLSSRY

In the case of `CC(=O)SC[C@@H](C)C(=O)N1CCC[C@H]1C(=O)N[C@@H](Cc1ccccc1)C(=O)O`, the AC50 in [1], in assay [2], in [3], in assay [4], in [5] and in [6] was > 30 µM in each case. The AC50 in assay [7] and in assay [8] was > 30 µM each time.
In the case of `C[N@+]1(CCF)[C@@H]2CC[C@H]1C[C@@H](OC(=O)C(O)(c1ccccc1)c1ccccc1)C2`, the AC50 in [1], in assay [2], in assay [3], in assay [4], in assay [5] and in [6] was > 30 µM throughout. For the same molecule, the AC50 in assay [7] and in [8] was > 30 µM each time.
For the molecule `C=C1/C(=C\C=C2/CCC[C@]3(C)[C@@H]([C@H](C)/C=C/[C@@H](O)C4CC4)CC[C@@H]23)C[C@@H](O)C[C@@H]1O` [CALCIPOTRIENE], the AC50 in assay [1], in assay [2], in assay [3], in assay [9], in [5] and in assay [6] was > 30 µM each time. Moreover, the concentration at half-maximal activity (AC50) is > 30 µM in assay [7] and 29 µM in [10].
Take `C=C[C@@]1(C)CC(=O)[C@]2(O)[C@@]3(C)[C@@H](O)CCC(C)(C)[C@@H]3[C@H](O)[C@H](OC(C)=O)[C@@]2(C)O1` [COLFORSIN]: the AC50 in assay [1] was > 30 µM; in [2] it was > 30 µM; in [11], 1.2 µM; in assay [3], > 30 µM; in [4], > 30 µM; in assay [5], > 30 µM. For the same molecule, the values for the AC50 in assay [6], in assay [7] and in assay [8] were 18 µM, > 30 µM and > 30 µM, respectively.
`COc1cc2ncnc(Nc3ccc(F)c(Cl)c3)c2cc1NC(=O)/C=C/CN1CCCCC1` [DACOMITINIB ANHYDROUS]: the AC50 in [2], in [3] and in assay [6] was > 30 µM in each case.
Consider `CCCCCCCCCCCCCCCCCCCCCC(=O)Nc1ccn([C@@H]2O[C@H](CO)[C@@H](O)[C@@H]2O)c(=O)n1` [ENOCITABINE], for which the AC50 in assay [1], in assay [2], in assay [3], in [4], in assay [5] and in assay [6] was > 30 µM each time. In addition, the AC50 in [7] and in [8] was > 30 µM in each case.
Regarding `CCN(CC)CCN1C(=O)CN=C(c2ccccc2F)c2cc(Cl)ccc21` [FLURAZEPAM], the AC50 in assay [1] is > 10 µM; in assay [2] it was > 10 µM; in assay [9], > 10 µM; in assay [12], > 30 µM; in [13], > 30 µM; in [5], > 30 µM. Besides, the AC50 is > 30 µM in assay [14] and > 10 µM in assay [10].
Take `Nc1cc(-c2ccncc2)c[nH]c1=O` [INAMRINONE]: the AC50 in assay [1] was > 10 µM; in [2], > 10 µM; in assay [11] it was > 10 µM; in [9], > 10 µM; in assay [12], > 30 µM; in assay [4], > 30 µM. In addition, the AC50 in assay [13] is > 30 µM; in assay [5] it was > 30 µM; in assay [14], > 30 µM; in [8] it was > 30 µM; in assay [10], > 10 µM.
As to `CCOC(=O)O[C@]1(C(=O)OCCl)CC[C@H]2[C@@H]3CCC4=CC(=O)C=C[C@]4(C)[C@H]3[C@@H](O)C[C@@]21C` [LOTEPREDNOL ETABONATE], the AC50 in [1], in assay [2], in assay [3], in assay [9], in [5] and in assay [6] was > 30 µM each time. For the same molecule, the concentration at half-maximal activity (AC50) in assay [7] is > 30 µM.
For `Cc1ncc2n1-c1ccc(Cl)cc1C(c1ccccc1F)=NC2` [MIDAZOLAM], the half-maximal activity concentration (AC50) was > 10 µM in [1]; > 10 µM in assay [2]; > 10 µM in assay [9]; > 30 µM in assay [12]; > 30 µM in assay [13]; > 30 µM in [5]. Besides, the AC50 is > 30 µM in assay [14] and > 10 µM in assay [10].
In the case of `C#CCOc1ccc(N)cc1C(=O)NCCCC` [PARSALMIDE], the AC50 in assay [2] was > 30 µM; in assay [11] it was > 30 µM; in assay [3], > 30 µM; in assay [4] it was > 30 µM; in assay [5], > 30 µM; in [6], 30 µM. The half-maximal activity concentration (AC50) in [7] and in assay [8] was > 30 µM throughout.
For `COc1ccc2nc3cc(Cl)ccc3c(Nc3cc(CN4CCCC4)c(O)c(CN4CCCC4)c3)c2n1` [PYRONARIDINE], the AC50 in [1], in assay [2], in assay [3], in [4], in assay [5] and in [6] was > 30 µM in each case. For the same molecule, the AC50 in assay [7] and in assay [8] was > 30 µM in each case.
For `CN(C(=O)c1c(O)c2ccccc2n(C)c1=O)c1ccccc1` [ROQUINIMEX], the AC50 in [2], in [3] and in assay [6] was > 30 µM each time.
For the molecule `CC1=C(C)C(=O)C(C(CCCCCC(=O)O)c2ccccc2)=C(C)C1=O` (stereo not given) [SERATRODAST], the AC50 in assay [1], in assay [2], in [3], in [9], in assay [12] and in [5] was > 30 µM throughout. The half-maximal activity concentration (AC50) in [6] and in assay [10] was > 30 µM throughout.
